Measurements published in article PMC11649397, “The study of halogen effect on the reactivity of the serine-targeting covalent warheads” (Frontiers in Chemistry, 2024).

Biological target: T1, hCES1A (Homo sapiens, UniProt P23141)
T1 sequence (P23141 18-567): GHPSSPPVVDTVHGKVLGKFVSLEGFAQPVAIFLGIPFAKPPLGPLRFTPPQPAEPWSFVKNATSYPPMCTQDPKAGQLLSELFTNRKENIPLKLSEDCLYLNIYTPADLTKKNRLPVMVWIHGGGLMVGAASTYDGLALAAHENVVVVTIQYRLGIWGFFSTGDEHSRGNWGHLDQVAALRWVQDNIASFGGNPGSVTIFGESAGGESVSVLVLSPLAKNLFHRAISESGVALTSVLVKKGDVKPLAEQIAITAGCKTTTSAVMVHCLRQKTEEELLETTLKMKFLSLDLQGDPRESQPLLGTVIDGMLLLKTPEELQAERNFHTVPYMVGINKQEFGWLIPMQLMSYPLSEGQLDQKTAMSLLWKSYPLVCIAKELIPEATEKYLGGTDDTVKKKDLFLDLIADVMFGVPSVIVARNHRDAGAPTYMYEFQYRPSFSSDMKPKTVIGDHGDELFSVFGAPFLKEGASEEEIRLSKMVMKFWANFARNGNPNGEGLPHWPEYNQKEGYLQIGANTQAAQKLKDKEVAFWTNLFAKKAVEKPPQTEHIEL
Test: Co-crystallography with hCES1A
Type: binding
Settings: 1:5 molar ratio
Procedure: Purified hCES1A incubated with F-3 and F-4 at 1:5 M ratio for 1 h at 18°C. Crystallisation screening was performed using commercially available kit sets using sitting drop vapor diffusion at 16°C. Both diffraction-quality crystals were obtained from the condition containing 14.4% peg8000 (w/v), 0.1M MES 6.4, 0.3M CaAc and 20% glycerol. Crystals were flash cooled in liquid nitrogen after cryoprotection in 25% glycerin. Date was collected on 02U1 at Shanghai Synchrotron Radiation Facility (SSRF). Data images were processed using program HKL2000. ([Otwinowski and Minor, 1997]). Crystal structures were solved using molecular replacement with the Phenix software suite using unbound hces1a (Protein Data Bank [PDB] accession number 1MX1 as the search model. Structure refinement was performed using Phenix. ([Adams et al., 2010]). The program COOT was used for manual rebuilding. ([Emsley and Cowtan, 2004]). Molecular graphics images were generated using CCP4MG. ([McNicholas et al., 2011]). […]
fluorogenic probe. 4 Briefly, the incubation mixtures (0.1 mL) contained Tris-HCl buffer, hPL solution (0.25 μg/mL, final concentration), porcine bile salt (0.1 mg/mL, final concentration) and each inhibitor (with different concentrations). […] The fluorescent signals of hydrolytic product were quantified by using the microplate reader (Spectra Max M4, Austria), with the wavelength of 600 nm and 660 nm for excitation and emission, respectively. […]
OPTS, a known fluorogenic probe, was used as the substrate to assess the residual activities of Notum in the presence of each tested compound. […] After preincubated at 37 °C for 1 min, OPTS was added to initiate the hydrolytic reaction and the multi-mode microplate reader (SpectraMax iD3, Molecular Devices, Austria) was used to analyze the florescence signals of the […]
The F-3, F-4, F-10-bound peptides was analysed using the nanoLC-MS/MS system, respectively.6 The purified hCES1A (150 μg, final content) was co-incubated with the small molecule inhibitor F-3/ F-4/ F-10 (100 μM, final concentration) at 4 °C and 25 °C, respectively, for 4h. […]

O=C(c1ccccc1)C(F)(F)F [F, 2,2,2-trifluoroacetophenone]
covalent binding mode at the catalytic triad (Ser221) in co-crystal: failed to result in similar covalent interactions
